Experimental data reported in PubChem BioAssay AID1259407 (Chemical Carcinogenesis Research Information System (CCRIS), 2018).
The source made the active and inactive calls. How the calls were made is not given here.

System: CCRIS mutagenicity, Ames/micronucleus/aberration tests
Experiment: CCRIS mutagenicity studies
Details: Test System: AMES SALMONELLA TYPHIMURIUM
[1] = Strain/Indicator: TA98, Metabolic Activation: NONE, Method: STANDARD PLATE
[2] = Strain/Indicator: TA98, Metabolic Activation: RAT, LIVER, S-9, AROCLOR 1254, Method: STANDARD PLATE
[3] = Strain/Indicator: TA100, Metabolic Activation: NONE, Method: STANDARD PLATE
[4] = Strain/Indicator: TA100, Metabolic Activation: RAT, LIVER, S-9, AROCLOR 1254, Method: STANDARD PLATE

O=c1c2[nH]c3ccccc3c2nnn1/N=C/c1ccc(O)cc1 was tested, and the mutagenic call (Strain/Indicator: TA97, Metabolic Activation: NONE, Method: PREINCUBATION) was “active; positive”, the mutagenic call (Strain/Indicator: TA97, Metabolic Activation: RAT, LIVER, S-9, AROCLOR 1254 (10%), Method: PREINCUBATION) was “active; positive” and the mutagenic call (Strain/Indicator: TA98, Metabolic Activation: NONE, Method: PREINCUBATION) was “active; positive”. For the same compound, the mutagenic call (Strain/Indicator: TA98, Metabolic Activation: RAT, LIVER, S-9, AROCLOR 1254 (10%), Method: PREINCUBATION) was “active; positive”, the mutagenic call (Strain/Indicator: TA100, Metabolic Activation: NONE, Method: PREINCUBATION) was “active; positive” and the mutagenic call (Strain/Indicator: TA100, Metabolic Activation: RAT, LIVER, S-9, AROCLOR 1254 (10%), Method: PREINCUBATION) was “active; positive”. The mutagenic call (Strain/Indicator: TA102, Metabolic Activation: NONE, Method: PREINCUBATION) was “active; positive” and the mutagenic call (Strain/Indicator: TA102, Metabolic Activation: RAT, LIVER, S-9, AROCLOR 1254 (10%), Method: PREINCUBATION) was “active; positive”.

With CC(OP(=O)(OC(C)C(Br)CBr)OC(C)C(Br)CBr)C(Br)CBr (stereo unspecified) the mutagenic call (Strain/Indicator: TA100, Metabolic Activation: RAT, LIVER, MICROSOMES, PHENOBARBITAL, Method: PREINCUBATION) was “active; positive” and the mutagenic call (Strain/Indicator: TA100, Metabolic Activation: RAT, LIVER, MICROSOMES, Method: PREINCUBATION) was “active; positive”.

Cc1ccccc1N=O was tested, and the mutagenic call [1] was “inactive; negative”, the mutagenic call (Strain/Indicator: TA98, Metabolic Activation: RAT, LIVER, S-9, AROCLOR 1254, Method: PREINCUBATION) was “inactive; negative” and the mutagenic call [2] was “inactive; negative”. The mutagenic call [3] was “inactive; negative” and the mutagenic call [4] was “active; positive”.

For c1ccc2c(c1)ccc1cc3ccc4ccncc4c3cc12, the mutagenic call [1] was “inactive; negative”, the mutagenic call (Strain/Indicator: TA98, Metabolic Activation: RAT, LIVER, S-9, AROCLOR 1254 (10%), Method: STANDARD PLATE) was “active; positive” and the mutagenic call [2] was “active; positive”. For the same compound, the mutagenic call [3] was “inactive; negative”, the mutagenic call (Strain/Indicator: TA100, Metabolic Activation: RAT, LIVER, S-9, AROCLOR 1254 (10%), Method: STANDARD PLATE) was “active; positive” and the mutagenic call [4] was “active; positive”.

O=[N+]([O-])C1=Cc2c3c1cccc3cc1ccc3ccccc3c21 was tested, and the mutagenic call [1] was “active; positive”, the mutagenic call [2] was “active; positive” and the mutagenic call [3] was “inactive; negative”. For the same compound, the mutagenic call [4] was “inactive; negative”, the mutagenic call (Strain/Indicator: TA1535, Metabolic Activation: NONE, Method: STANDARD PLATE) was “inactive; negative” and the mutagenic call (Strain/Indicator: TA1535, Metabolic Activation: RAT, LIVER, S-9, AROCLOR 1254, Method: STANDARD PLATE) was “inactive; negative”. For the same compound, the mutagenic call (Strain/Indicator: TA1537, Metabolic Activation: NONE, Method: STANDARD PLATE) was “active; positive”, the mutagenic call (Strain/Indicator: TA1537, Metabolic Activation: RAT, LIVER, S-9, AROCLOR 1254, Method: STANDARD PLATE) was “inactive; negative” and the mutagenic call (Strain/Indicator: TA1538, Metabolic Activation: NONE, Method: STANDARD PLATE) was “active; positive”. For the same compound, the mutagenic call (Strain/Indicator: TA1538, Metabolic Activation: RAT, LIVER, S-9, AROCLOR 1254, Method: STANDARD PLATE) was “active; positive”.
